“And” between values parts separate entries of the source, which are not always exact repeats. Equal values may be shown once.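 Cultured in 96-well plates, cells were exposed to test compound for 48 hours across five concentrations. GI50 is the concentration that inhibits growth by half. TGI is the concentration that stops growth completely.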
Tests used:
Assay in all cases: growth of human tumour cells (NCI), 48 h
786-0 renal = system: 786-0 renal
BT-549 breast = system: BT-549 breast
IGROV1 ovarian = system: IGROV1 ovarian
NCI-H226 lung = system: NCI-H226 lung
OVCAR-3 ovarian = system: OVCAR-3 ovarian
OVCAR-5 ovarian = system: OVCAR-5 ovarian
RXF 393 renal = system: RXF 393 renal
SF-295 CNS = system: SF-295 CNS
SF-539 CNS = system: SF-539 CNS
SNB-75 CNS = system: SNB-75 CNS

Structure (SMILES)	GI50 (786-0 renal) [µM]	TGI (786-0 renal)	GI50 (BT-549 breast) [µM]	TGI (BT-549 breast)	GI50 (IGROV1 ovarian) [µM]	TGI (IGROV1 ovarian)	GI50 (NCI-H226 lung) [µM]	TGI (NCI-H226 lung) [µM]	GI50 (OVCAR-3 ovarian) [µM]	TGI (OVCAR-3 ovarian)	GI50 (OVCAR-5 ovarian) [µM]	TGI (OVCAR-5 ovarian)	GI50 (RXF 393 renal) [µM]	TGI (RXF 393 renal)	GI50 (SF-295 CNS) [µM]	TGI (SF-295 CNS)	GI50 (SF-539 CNS) [µM]	TGI (SF-539 CNS)	GI50 (SNB-75 CNS) [µM]	TGI (SNB-75 CNS)
COc1cc(C2C(C#N)=C(N)OC3=C2C(=O)c2ccccc2C3=O)cc(OC)c1OC (configuration not stated)	5.8	> 100 µM	1.43	18.5 µM	2.24	19.2 µM	1.39	23.7	0.493	4.18 µM	4.26	18.6 µM	0.517	16.3 µM	8.29	24.8 µM	0.344	4.56 µM	0.293	25.1 µM
COC(=O)CCC1=C(C)c2cc3[n-]c(cc4nc(cc5[n-]c(cc1n2)c(CCC(=O)OC)c5C)C=C4C)cc3C.[Cd+2]	11.3	39.3 µM	0.925	2.39 µM	3.03	8.82 µM	1.52	4.73	1.73	3.81 µM	16.8	39.7 µM	2.88	10.9 µM	17.5	77 µM	4.39	15.2 µM	6.62	33.8 µM
O=Cc1coc2ccccc2c1=O		37.9 µM		36.8 µM		41.4 µM		84.4		> 100 µM		56.2 µM		40.2 µM		41.2 µM		31.9 µM		0.0768 µM
O=[N+]([O-])c1ccc2c(N=Nc3c(O)ccc4ccccc34)c(O)cc(S(=O)(=O)O)c2c1	30.7	50 µM and > 100 µM	37.5	50 µM and > 100 µM	27.7	50 µM and > 100 µM		50	9.36	50 µM and > 100 µM	70.3	50 µM and > 100 µM	27.1	50 µM and > 100 µM	29.5	50 µM and > 100 µM		50.8 µM	44.8	50 µM and > 100 µM
CC(=O)Oc1cccc2c1C(=O)c1c(OC(C)=O)cc(C)cc1C2=O		72.5 µM		> 100 µM		> 100 µM		> 100		> 100 µM		> 100 µM		> 100 µM		> 100 µM		> 100 µM		> 100 µM
COc1ccc([C@H]2O[C@@H](CO)C[C@]2(O)c2ccc(OC)cc2)cc1	> 100	> 100 µM	> 100	> 100 µM	> 100	> 100 µM	> 100	> 100	> 100	> 100 µM	> 100	> 100 µM	28.4	> 100 µM	> 100	> 100 µM	> 100	> 100 µM	> 100	> 100 µM
O=C1/C(=C/c2cccs2)CCC/C1=C\c1cccs1	49.8	> 100 µM	> 58.3	> 100 µM	30.3	98.5 µM	49.1	> 100	23.8	> 100 µM	> 100	> 100 µM	26.4	> 100 µM	66.5	> 100 µM	59.2	> 100 µM	16.9	81.4 µM
CN(C)c1ccc(/C=C/c2ccnc3ccccc23)cc1	3.77	> 100 µM and 21.6 µM	1.88	> 100 µM and 14.6 µM	5.61	> 100 µM	3	48	2.71		6.9	> 100 µM and 49.6 µM	13.4	> 100 µM	3.43	> 100 µM and 21.2 µM	3.14	> 100 µM and 17.5 µM	2.41	> 100 µM and 11.9 µM

— PubChem BioAssay (NCI)
